This note sets out measurements from PubChem BioAssay AID2823 (Broad Institute, 2010).

Activity calls are given as the source filed them. How the calls were made is not given here. A value given as a limit tells only on which side of the number the result lay.

This assay deals with RanGTP-importin-beta complex (human Ran / KPNB1). Description: Ran–importin-beta interaction inhibitors, confirmation, biochemical, FRET, CFP/YFP, cell-free homogeneous (AID 2823). To be noted: CFP-Ran/YFP-importin-beta FRET ratio.
For the compound `O=C(c1ccco1)N1CCN(c2cc(=O)n(-c3ccc(Cl)cc3)c(=O)[nH]2)CC1`, the IC50 was > 50 µM (inactive).
For the compound `C=CCN1C(=O)/C(=C2/Sc3ccccc3N2CC)SC1=S`, the IC50 was > 50 µM (inactive).
In the case of `CCOc1ccc(N2C(=O)C3C4C=CC(CC4)C3C2=O)c([N+](=O)[O-])c1` (centres undefined) it was > 50 µM (inactive).
In the case of `COc1ccc(C(=O)Nc2ccc(S(=O)(=O)Nc3onc(C)c3C)cc2)cc1` it was > 50 µM (inactive); in that of `CN1CCN(c2cc(=O)n(-c3ccc(Cl)cc3)c(=O)[nH]2)CC1`, > 50 µM (inactive).
Regarding `O=C(Cn1c2ccccc2c(=O)c2ccccc21)Nc1ccccc1F`, the concentration for half-maximal inhibition (IC50) was 5.51 µM.
Take `COc1ccc(Cl)cc1S(=O)(=O)Nc1noc2ccccc12`: the IC50 is > 50 µM (inactive).
`CC(C)S(=O)(=O)c1nsc2nc(=O)c(/C=C3\C=Nc4ccccc43)c(N)n12`: the IC50 is 7.97 µM.
In the case of `CCOC(=O)c1c(C)oc2cc(Br)c(OCC(N)=O)cc12` it was > 50 µM (inactive).
In the case of `Nc1nc(CSc2nnnn2-c2ccc(Cl)cc2)nc(N2CCOCC2)n1` it was > 50 µM (inactive); in that of `Nc1c(C(=O)Nc2ccccc2)c2nc3ccccc3nc2n1CCCN1CCOCC1`, 41.7 µM; in that of `N#C/C(=C\N1CCN(Cc2ccc3c(c2)OCO3)CC1)c1nc2ccccc2s1`, > 50 µM (inactive).
In the case of `Cc1cc(C)c(S(=O)(=O)N(C)CC(N)=O)c(C)c1` it was > 50 µM (inactive).
Turning to `COc1cc(C(=O)N2CCCN(c3nc4cc(C)ccc4cc3C#N)CC2)cc(OC)c1OC`, the IC50 is 10.9 µM.
As for `CC(NC(=O)/C(C#N)=C/c1ccc(N2CCOCC2)cc1)c1ccccc1` (centres undefined), the IC50 was 20.2 µM.
In the case of `Cc1ccc(C(=O)NCc2ccco2)cc1S(=O)(=O)N1CCOCC1` it was > 50 µM (inactive); in that of `Cn1nnnc1SCC(=O)Nc1nn(-c2ccccc2)nc1C(N)=O`, > 50 µM (inactive).
To `O=C(c1ccc(Br)cc1)c1cc2ccc(O)cc2oc1=O` belongs 19.2 µM; to `CC(C)Sc1nnc(CNC(=O)C23CC4CC(CC(C4)C2)C3)n1C1CCCCC1`, > 50 µM (inactive); to `COC(=O)C1=C(C)NC(C)=C(C(=O)OC)C1C(=O)OC(C)C(=O)c1ccccc1` (centres undefined), > 50 µM (inactive).
To `O=C(CCN1C(=O)COc2ccccc21)N1CCCCC1` belongs > 50 µM (inactive); to `COCc1ccc(CN2CCCC(CO)(Cc3ccccc3C)C2)o1` (centres undefined), > 50 µM (inactive).
In the case of `CCOC(=O)C1(CC2CCCCO2)CCN(C(=O)Nc2ccc3c(c2)OCO3)CC1` (centres undefined), the IC50 was > 50 µM (inactive).
In the case of `CCN1CCc2c(sc(NC(=O)Cc3ccccc3)c2C(=O)OC)C1` it was > 50 µM (inactive); in that of `O=C(Nc1nonc1NC(=O)c1cccs1)c1cccs1`, > 50 µM (inactive); in that of `COCCNc1cc(C)nc2cc(-c3ccc(C)cc3)nn12`, 5.2 µM.
Turning to `CO/N=C\c1cc(C(=O)c2ccc(Cl)cc2Cl)cn1C`, the IC50 is > 50 µM (inactive).
To `Cc1cc(C)c[n+](-c2nc3ccccc3nc2[N-]S(=O)(=O)c2ccc(Br)s2)c1` belongs 3.68 µM; to `COc1ccc(-c2nc(NC(=O)c3n[nH]c(=O)c4ccccc34)sc2C)cc1`, > 50 µM (inactive).
In the case of `O=C(c1cc2c(=O)n3ccccc3nc2s1)N1CCN(Cc2ccccc2)CC1` it was > 50 µM (inactive); in that of `CC1(C)CC(=O)C=C(Nc2ccccc2F)C1`, > 50 µM (inactive); in that of `CCOC(=O)N1CCN(/C=C(\C#N)c2nc3ccccc3s2)CC1`, > 50 µM (inactive).
To `Cc1ccc(/C=C/C(=O)Nc2cccc3ncccc23)o1` belongs > 50 µM (inactive); to `Cc1cc(C(=O)COC(=O)c2nc3nccc(C)n3n2)c(C)n1CC1CCCO1` (centres undefined), > 50 µM (inactive).
Consider `COC(=O)c1c(NC(NC(=O)c2ccccc2)(C(F)(F)F)C(F)(F)F)sc2c1CCN(C)C2`, for which the concentration for half-maximal inhibition (IC50) is 35.8 µM.
To `CSc1sc(C)cc1C1C(C#N)=C(N)N(c2cccnc2)C2=C1C(=O)CCC2` (centres undefined) belongs 48 µM; to `COc1ccc(-n2c(C)cc(/C=C3/SC(=S)N(C)C3=O)c2C)cc1`, > 50 µM (inactive).
On to `Cc1ccc2cc(CN(CC3CCCO3)C(=S)Nc3ccccc3)c(=O)[nH]c2c1C` (centres undefined), for which the IC50 was > 50 µM (inactive).
In the case of `CCOC(=O)c1c(/N=C/c2ccc(C)cc2O)sc2c1CCN(C)C2` it was > 50 µM (inactive).
To `C=CCn1c(C)c(C(C)=O)c(N2CCN(C(c3ccccc3)c3ccccc3)CC2)nc1=S` belongs > 50 µM (inactive).
In the case of `Nc1nc(N2CCOCC2)nc(N(c2ccccc2)c2ccccc2)n1` it was > 50 µM (inactive); in that of `CC(O)CNc1nc2ccccc2n1CC(=O)NC12CC3CC(CC(C3)C1)C2` (centres undefined), > 50 µM (inactive); in that of `COC(=O)c1cc(=O)n2c(sc3ccccc32)c1C#N`, 1.32 µM.
In the case of `Cc1ccc(NC(=O)Cn2nc(C(F)(F)F)c3c2CCC3)cc1`, the IC50 was > 50 µM (inactive).
To `O=C(O)Cn1cc(/C=C2\SC(=O)N(c3ccccc3)C2=O)c2ccccc21` belongs 39.4 µM.
In the case of `COc1ccc(C2NC(C(=O)O)Cc3c2[nH]c2ccccc32)cc1CN1CCN(c2ccc(F)cc2)CC1` (centres undefined) it was 7.68 µM; in that of `O=C1C(=O)N(CCS(=O)(=O)c2ccccc2)c2ccc(Cl)cc21`, > 50 µM (inactive); in that of `N#C/C(=C\c1ccc(-c2ccc(F)cc2)o1)C(=O)Nc1nc(-c2cccs2)cs1`, > 50 µM (inactive).
To `CCOC(=O)c1c(NC(=O)CN2CCCc3ccccc32)sc(C(C)=O)c1C` belongs > 50 µM (inactive); to `CC1C=CCC2C(=O)N(c3ccccc3OC(=O)c3cccs3)C(=O)C12` (centres undefined), > 50 µM (inactive).
For `CCCOC(=S)NC(=O)c1sc2ccccc2c1Cl`, the IC50 is > 50 µM (inactive).
In the case of `CN(C)/C=C/C(=O)/C=C/c1ccc(Cl)cc1` it was > 50 µM (inactive).
In the case of `Cc1ccc(-n2c(=O)c(C#N)cc3c(=O)n4ccccc4nc32)cc1C` it was > 50 µM (inactive).
Take `Cc1cccc(Nc2nnc(SC/C(O)=C(\C#N)c3nc4ccccc4[nH]3)s2)c1C`: the IC50 was > 50 µM (inactive).
In the case of `COc1ccc(C2NCCc3c2[nH]c2ccccc32)cc1COc1ccc(F)cc1` (centres undefined) it was > 50 µM (inactive); in that of `CCN(Cc1ccccc1)C(=O)CN1C(=O)NC(CC)(c2ccc(F)cc2)C1=O` (centres undefined), > 50 µM (inactive).
To `Fc1ccccc1N1CC(c2ccccc2)C(c2cccs2)=N1` (centres undefined) belongs 20.8 µM; to `N#CC1=C(N)OC2=C(CCc3ccccc32)C1c1ccccc1` (centres undefined), > 50 µM (inactive); to `O=C(NNc1c2ccccc2nc2ccccc12)c1ccc(O)cc1O`, > 50 µM (inactive).
In the case of `CCN1/C(=C/C=C/c2sc3ccccc3[n+]2CC)Sc2ccccc21` it was 16.6 µM.
Turning to `CCCc1cc(=O)oc2c(CN(CC)CC)c(O)c(Cl)cc12`, the IC50 was 43.4 µM.
To `O=C(O)C1C2CCC(C2)C1C(=O)NCCc1ccc(F)cc1` (centres undefined) belongs > 50 µM (inactive); to `CCN1/C(=C\C=C\C2=[N+](CC)c3ccccc3C2(C)C)C(C)(C)c2ccccc21`, 9.18 µM.
To `COc1ccccc1NC(=O)c1cc2ccccc2nc1C` belongs > 50 µM (inactive).

Usually IC50 stands for the concentration that inhibits the measured activity by half.
